Data on six molecules can be found in patent publication US5770593A, “Method of determining a pharmaceutical combination preparations for use in anti-neoplastic therapy” (Boehringer Mannheim GmbH, priority 1988, dated 1998).

Read-outs that look alike come from different tables or passages of the source.

One experiment concerns Walker carcinoma cells. Nature of the experiment: Inhibition of multiplication of Walker cells (cell proliferation), single active material or combination, Chou and Talalay analysis. The class given is cell-based, rat.
In the next experiment the target is protein kinase C. Nature of the experiment: Inhibition of protein kinase C (PK-C): in vitro method, 32P incorporation into H1 histone. It counts as biochemical, rat. As for the experimental part:
b) Inhibition of protein kinase C (PK-C): in vitro method.
However, to the extracts was additionally added 1 mM phenylmethanesulphonyl chloride, 20 μg./ml. leupeptin and 2 μg./ml. aprotinin. […] 1,2-s,n-diolein. The reaction time was 10 minutes at 32° C. The enzyme reaction was stopped by the addition of 1 ml. 20% trichloroacetic acid (w/v). The protein was precipitated out on Whatman GF/F filter paper and counted with the help of a liquid scintillation counter.
Quercetin was solubilised in dimethyl sulphoxide (DMSO). For the batch mixing, the solution in DMSO was made up to a DMSO end concentration of 1%. An equivalent amount of pure DMSO was added to the control groups. The influence of quercetin on the cell multiplication was investigated by the addition of the active material in DMSO to the culture medium up to an end concentration of 0.1%. The cells were cultured in the presence of the active material for 48 hours. The control group only received pure DMSO.

For experiment [1], the system named is Meth A-fibrosarcoma cells. In words: [3H]-Thymidine incorporation, inhibition of tumour cell proliferation. The settings on record: Table 2; ilmofosin alone; read-out: IC50, inhibition of tumour cell proliferation, single active material. The class given is cell-based. As to the method: b) [3H]-Thymidine incorporation.
The cytostatic or cytotoxic effect of the active materials or active material combinations on Meth A-fibrosarcoma cells was investigated in vitro on the basis of the reduced incorporation of [3H]-thymidine. The cells were suspended in DMEM, 10% FCS, 50 μM 2-mercaptoethanol, 100 U/ml. penicillin and 100 μg./ml. streptomycin up to an end concentration of 5×10^4 /ml. in the absence of the active materials. The active materials were added to the cells in an end volume of 20 μl. Per concentration, 6 cultures of 0.2 ml. were used and incubated in microtitre plates in a moist atmosphere. The cultures were pulsed for 3 hours with 1 μCi […] [methyl-^3 H]-thymidine(specific activity 5 Ci/mmol). The samples were subsequently collected and washed several times. The filter plates used were dried and transferred to scintillation test tubes. The radio-active incorporation was measured by the addition of Rotiscint.
The IC50 values for a combination of ilmofosin with CDDP or doxorubicin were determined in the manner described above in Example 7b).

Where [2] appears, read: combination of the inhibitor with cis-DDP, 48 hours; method of Chou and Talalay.
Where [3] appears, read: Table 1, 50% inhibition of the protein kinase C, read-out: inhibition of the protein kinase C IC50.
The mark [4] stands for this setting: protein kinase C enriched from Walker cells, 10 minutes at 32° C., pH 7.4, read-out: IC50, inhibition of protein kinase C (Examples 2-6).
The mark [5] stands for this setting: Rattus norvegicus, 48 h, read-out: IC50 cell proliferation.
Setting [6] is: Rattus norvegicus, 48 h, read-out: IC50 cell proliferation in combination with cis-DDP.
Setting [7] is: Rattus norvegicus, 48 h; read-out: IC50 cell proliferation in combination with cis-DDP.

Experimental for Walker carcinoma cells: Dose-action curves for individual active materials or active material combinations were obtained by the addition of corresponding active materials to a suspension of Walker cells (10^5 cells/ml.). After an incubation time of 48 hours, the cells were counted with the help of an electronic counter (Coulter Electronics, Luton, U.K.). The multiplication of the cells (M) was calculated according to the following formula:
in which C stands for the untreated control cells, T signifies the number of treated cells and the indices 0 and t indicate the number of the cells at the time point 0 and after 48 h.
The data used for the calculation originated from at least three different experiments.

For `CC/C(=C(\c1ccccc1)c1ccc(OCCN(C)C)cc1)c1ccccc1` [tamoxifen], in the experiment with Walker carcinoma cells (setting [2]), the “nature of the activity” value is recorded as “synergism”.

On to `O=c1c(O)c(-c2ccc(O)c(O)c2)oc2cc(O)cc(O)c12` [quercetin, 3,3',4',5,7-pentahydroxyflavone], for which the IC50 on protein kinase C (setting [3]) came to 25 µM; on protein kinase C (setting [4]) it was 25 µM; in the experiment with Walker carcinoma cells (setting [5]), 23 µM; with Walker carcinoma cells (setting [6]), 3.8 µM. In the experiment with Walker carcinoma cells (setting [2]), the “nature of the activity” value is listed as “synergism”.

For the molecule `CCCCCCCCCCCCCCCCSCC(COC)COP(=O)([O-])OCC[N+](C)(C)C` (stereo not drawn) [ilmofosin], the IC50 stood at 0.56 µM on protein kinase C (setting [3]), 20 µM at protein kinase C (setting [4]), 2 µM in the experiment with Walker carcinoma cells (setting [7]) and 1.06 µg/mL in experiment [1]. Also, the “nature of the activity” value in the experiment with Walker carcinoma cells (setting [2]) is “synergism”.

In the case of `CN[C@@H]1C[C@H]2O[C@@](C)([C@@H]1OC)n1c3ccccc3c3c4c(c5c6ccccc6n2c5c31)C(=O)NC4` [staurosporin], the IC50 in the experiment on Walker carcinoma cells (setting [5]) amounted to 0.4 µM; in the experiment with Walker carcinoma cells (setting [6]), 0.004 µM. Further, the “nature of the activity” value with Walker carcinoma cells (setting [2]) is listed as “synergism”.

For `N.N.[Cl][Pt][Cl]` [cis-DDP, cis-diammine-dichloroplatinum (II)], the IC50 at protein kinase C (setting [3]) is more than 1000 µM; in the experiment with Walker carcinoma cells (Table 1; single active material, 48 hours; read-out: IC50 cell proliferation), 0.23 µM.

On to `CCCCCCCCCCCCCCCCCCOCC(COP(=O)([O-])OCC[N+](C)(C)C)OC` (stereo not drawn) [ET-18-OCH3, 4-hydroxy-7-methoxy-N,N,N-trimethyl-3,5,9-trioxa-4-phosphaheptacosan-1-aminium 4-oxide], for which the IC50 with Walker carcinoma cells (setting [7]) turned out to be 1.7 µM; in the experiment with Walker carcinoma cells (Rattus norvegicus; Table 1; single active material, 48 hours; read-out: IC50 cell proliferation), 5.8 µM.
